{"source": "patent US6911432B2", "about": "“Drugs, foods or drinks with the use of algae-derived physiologically active substances” (priority 1997, dated 2005)", "key": {"RAW 264.7 cells": {"tested_on": "RAW 264.7 cells", "assay": "NO production induced by LPS, NO2- concentration in medium", "format": "cell-based, mouse", "conditions": "for inhibition of NO production (in words): RAW264.7, aqueous 100 mM solution used as sample", "experimental": "(1) RAW 264.7 cells (ATCC TIB 71) were suspended in phenol red-free Dulbecco's modified Eagle's medium containing 10% fetal bovine serum (manufactured by Gibco) and 2 mM L-glutamine (manufactured by Life Technologies Oriental, 25030-149) at a concentration of 3×10^5 cells/ml, and 500 μl portions thereof were seeded to respective wells of a 48-well microtiter plate and incubated at 37° C. for 12 hours in the presence of 5% CO2. To each well were added 10 μl of 25 μg/ml lipopolysaccharide (LPS, manufactured by Sigma, L-2012) and 10 μl of aqueous 5000, 1500, 500, 150 or 50 μM agarobiose or neoagarobiose (manufactured by Sigma, G4410) solution, and the plate was incubated for additional 12 hours. Then, concentration of NO2^− produced by oxidation of NO in the medium was measured. As control groups, a group to which LPS was not added and a group to which agarobiose or neoagarobiose was not added were provided.\nAfter incubating as described above, 100 μl of 4% Greece reagent (manufactured by Sigma, G4410) was added to 100 μl of the medium, and the mixture was allowed to stand for 15 minutes at room temperature. Then, the absorbance at 490 nm was measured. NO2^− concentration in the medium was calculated with reference to a calibration curve prepared by using NaNO2 at given concentrations dissolved in the same medium as that described above. All the measurements were carried out in triplicate.\n(2) A suspension of 5 g of commercially available agar (Ina agar type S-7, manufactured by Ina Shokuhin Kogyo) in 45 ml of 0.1 N HCl was treated at 95° C. for 13 minutes. After cooling to room temperature, the suspension was neutralized with NaOH and filtered through 0.22 μm MILLEX-GP filter (manufactured by Milipore, SLGPR25LS). […] Namely, 10 μl of 25 μg/ml LPS and 10 μl of a 20-fold dilution of the sample mentioned above were added to wells of a 48 well microtiter plate containing RAW264.7 cells which had been incubated in the wells. The measurement was carried out with the culture medium. As control groups, a group to which LPS was not added, a group to which a sample was not added and a group to which 2.5 mM citric acid was added were provided. All the measurement were carried out in duplicate."}, "HL-60 cells [1]": {"tested_on": "HL-60 cells", "assay": "antiproliferation assay, MTT method, absorbance at 590 nm", "format": "cell-based, human", "conditions": "for antiproliferation activity against HL-60 cells (in words): preparations and fractions, compared with control to which water was added"}, "HL-60 cells [2]": {"tested_on": "HL-60 cells", "assay": "apoptosis-inducing assay, cell morphology under an optical microscope", "format": "cell-based, human", "experimental": "Human promyelocytic leukemia cell HL-60 (ATCC CCL-240) was incubated at 37° C. in RPMI 1640 medium (manufactured by Gibco) supplemented with 10% of fetal bovine serum (JRH Bioscience) which had been treated at 56° C. for 30 minutes, and suspended in the same medium at a concentration of 500 cells/90 μl. Each 90 μl portion of the suspension was distributed into each well of a 96 well plate (manufactured by Falcon). To the suspension in each well was added 10 μl of the above-mentioned acid decomposition solution, a 10-fold dilution of the solution or water, and incubated with 5% CO2 at 37° C. After 24 hour and 48 hour from the initiation of the incubation, the cell morphology was observed under an optical microscope. Then, according to the MTT method described in “Apoptosis Jikken Protocol” (Syuzyun-sha, Tanuma, Seiichi ed., pp. 156 (1994)), 5 mg/ml of 3-(4,5-dimethylthiazole-2-yl)-2,5-diphenyltetrazolium bromide (manufactured by Sigma) and 10 μl of phosphate buffered saline solution were added to the culture and the incubation was continued for additional 4 hours. Then, 100 μl of 2-propanol containing 0.04 N hydrochloric acid was added to the culture, and the mixture was thoroughly stirred. An absorbance at 590 nm was measured and the number of viable cells was calculated from the absorbance measured for each of the wells, which was compared each other.\nEach elution peak was fractionated, collected, evaporated to dryness under reduced pressure and then dissolved in 300 μl of water. Each fraction was sterilized by filtration and its 10 μl portion was placed in a well of a 96 well microtiter plate. Then, 90 μl of RPMI 1640 medium (manufactured by Nissui) containing 10% fetal bovine serum (manufactured by Gibco) and 5,000 HL-60 cells (ATCC CCL-240) was added thereto, followed by incubation at 37° C. for 48 hours with 5% CO2. The cell morphology was observed under an optical microscope. Then, 5 mg/ml 3-(4,5-dimethylthiazole-2-yl)-2,5-diphenyltetrazolium bromide and 10 μl of phosphate buffered saline solution were added thereto and the incubation was continued for additional 4 hours. To the culture was added 100 μl of 2-propanol containing 0.04 N hydrochloric acid and the resultant mixture was thoroughly stirred. The absorbance at 590 nm was measured to determine a cell proliferation rate."}, "[3]": {"tested_on": "lipid peroxide radical production", "assay": "inhibition of lipid peroxide radical production (tert-butyl hydroperoxide, bacterial growth readout)", "format": "cell-based, Staphylococcus aureus 3A", "parameters": "key to growth of the bacterium (activity of inhibiting lipid peroxide radical production): + represents the sample in which the growth of the bacterium was observed; −represents the sample in which the growth of the bacterium was not observed", "experimental": "Staphylococcus aureus 3A (National Collection Of Type Culture, NCTC 8319) was inoculated into 5 ml of brain heart infusion medium (manufactured by Difco, 0037-17-8) and cultured at 37° C. overnight. The bacterial cells were collected by centrifugation, washed with phosphate buffered saline 3 times and then suspended in phosphate buffered saline at a concentration of 1×10^7 colony forming units/ml. A mixture of 100 μl of the cell suspension, 100 μl of an aqueous sample solution, 100 μl of aqueous 1 mg/ml methemoglobin (manufactured by Sigma M9250) solution, 600 μl of phosphated buffered saline and 100 μl of aqueous 50 mM tert-butyl hydroperoxide (manufactured by Katayama Kagaku, 03-4990) solution were reacted at 37° C. for 30 minutes. To the reaction mixture was added 1 ml of 2×NMP medium [prepared by dissolving 8 g of nutrient broth (manufactured by Difco, 0003-01-6), 5 g of trypton (manufactured by Difco, 0123-17-3), 5 g of NaCl, 10 g of mannitol (manufactured by Nacalai Tesque, 213-03) and 0.035 g of phenol red (manufactured by Nacalai Tesque, 268-07) in distilled water to make the volume up to 500 ml. The pH was adjusted to 7.5 with NaOH and then the mixture was sterilized by filtration] to stop the reaction. The resultant mixture was diluted every 3-folds with NMP medium (prepared by diluting 2×NMP medium 2-folds with sterilized water) to prepare 12 serial dilutions and 160 μl of each dilution was placed in each well of a 96-well microtiter plate. The plate was incubated at 37° C. overnight.\nIn Table 14, + represents the sample in which the growth of the bacterium was observed, and −represents the sample in which the growth of the bacterium was not observed. The concentration shown in the uppermost line of the table is that of the sample in the reaction mixture in which the sample was reacted with tert-butyl hydroperoxide and the bacterial cells at 37° C. for 30 minutes."}, "HL-60 cells [4]": {"tested_on": "HL-60 cells", "assay": "viable cell count with Trypan Blue under a microscope", "format": "cell-based, human", "conditions": "final concentration 250 μM or 125 μM", "experimental": "Agarobiose, agarotetraose, agarohexaose and agarooctaose (hereinafter, sometimes, these oligosuccharaides are referred to as agarooligosaccharides) obtained in Example 5 were dissolved in water at a concentration of 2.5 mM or 1.25 mM separately, and were sterilized by filtration. HL-60 cells were suspended in RPMI 1640 medium containing 10% fetal bovine serum at a concentration of 2.5×10^5 cells/4.5 ml and to this suspension was added 0.5 ml of each of the oligosaccharide solutions. The resultant mixture were incubated with 5% CO2 at 37° C. for 24 hours or 48 hours. A part of the cell culture was taken up, followed by addition of Trypan Blue thereto and observing under a microscope to count the number of viable cells.\nThat is, FIG. 14 illustrates the relation between the incubation time and the number of viable cells when HL-60 cells were cultured with addition of one of the oligosaccharides at the final concentration of 250 μM. FIG. 15 illustrates the relation between the incubation time and the number of viable cells when HL-60 cells were cultured with addition of one of the oligosaccharides at the final concentration of 125 μM. In FIGS. 14 and 15, the horizontal axes represent the incubation time (hrs.) and the vertical axes represent the number of viable cells (× 10^5/5 ml). The closed circle (●) represents the addition of water (control), the open diamond (⋄) represents the addition of agarobiose, the open circle (◯) represents the addition of agarotetraose, the open triangle (Δ) represents the addition of agarohexaose and the open square (□) represents the addition of agarooctaose."}}}
{"compound": "O=C[C@H](O)[C@H]1OC[C@@H](O)[C@@H]1O", "note": "[3,6-anhydro-D-galactose]", "values": [{"measurement": "inhibition of NO production (in words)", "setting": "RAW 264.7 cells", "value": "inhibited NO production"}]}
{"compound": "O=C[C@@H](O)[C@@H]1OC[C@H](O)[C@H]1O", "note": "[3,6-anhydro-L-galactose]", "values": [{"measurement": "absorbance at 590 nm relative to that of the control group to which water was added", "setting": "HL-60 cells [1]; HL-60, final concentration of 1 mM", "value": "less than one-half"}, {"measurement": "apoptosis corpuscles", "setting": "HL-60 cells [2]; final concentration of 1 mM", "value": "apoptosis corpuscles were observed"}]}
{"compound": "O=C[C@H](O)[C@@H](O)[C@@H](O)[C@H](O)CO", "note": "[Galactose, galactose, reference compound]", "values": [{"measurement": "inhibition of NO production (in words)", "setting": "RAW 264.7 cells", "value": "did not"}, {"measurement": "growth of the bacterium (activity of inhibiting lipid peroxide radical production)", "setting": "[3]; 0.1 mM sample in the reaction mixture", "value": "−"}, {"measurement": "growth of the bacterium (activity of inhibiting lipid peroxide radical production)", "setting": "[3]; 1 mM sample in the reaction mixture", "value": "−"}]}
{"compound": "OC[C@H]1OC(O)[C@H](O)[C@@H](O[C@@H]2O[C@H]3CO[C@@H]([C@@H]2O)[C@@H]3O)[C@H]1O", "note": "(stereo partly drawn) [neoagarobiose, reference compound]", "values": [{"measurement": "inhibition of NO production induced by LPS (in words)", "setting": "RAW 264.7 cells; RAW 264.7, 10 μl of 5000 to 50 μM solution per 500 μl well, 12 hours", "value": "did not"}]}
{"compound": "CO[C@H](C=O)[C@@H]1OC[C@H](O)[C@H]1O[C@@H]1O[C@H](CO)[C@H](O)[C@H](O)[C@H]1O", "note": "[β-D-galactopyranosyl-(1→4)-3,6-anhydro-2-O-methyl-L-galactose]", "values": [{"measurement": "antiproliferation activity against HL-60 cells (in words)", "setting": "HL-60 cells [1]", "value": "strong antiproliferation activity"}, {"measurement": "antiproliferation activity against HL-60 cells (in words)", "setting": "HL-60 cells [1]; listed as group 3", "value": "an antiproliferation activity was observed"}]}
{"compound": "O=C[C@H](O)[C@H]1OC[C@@H](O)[C@@H]1O[C@@H]1O[C@H](CO)[C@H](OS(=O)(=O)O)[C@H](O)[C@H]1O", "note": "[κ-carabiose, β-D-galactopyranosyl-4-sulfate-(1→4)-3,6-anhydro-D-galactose]", "values": [{"measurement": "cell proliferation suppressed as compared with the control group", "setting": "HL-60 cells [1]; HL-60, κ-carabiose at 156 μM", "value": "about 70%"}, {"measurement": "antiproliferation activity against HL-60 cells (in words)", "setting": "HL-60 cells [1]", "value": "cell proliferation was inhibited"}, {"measurement": "apoptosis corpuscles under an optical microscope", "setting": "HL-60 cells [2]; 156 μM", "value": "apoptosis corpuscles were observed"}, {"measurement": "apoptosis-inducing activity (apoptosis corpuscles, in words)", "setting": "HL-60 cells [2]; preparations and fractions", "value": "apoptosis corpuscles were observed"}]}
{"compound": "agarooctaose", "values": [{"measurement": "apoptosis corpuscles", "setting": "HL-60 cells [4]", "value": "apoptosis corpuscles were observed"}, {"measurement": "number of viable cells as compared with the group to which water was added", "setting": "HL-60 cells [4]; 24 hours or 48 hours", "value": "decreased"}]}
